Data set [1] in a line: Specific surface area by the BET method with N2 adsorption. It counts as physicochemical. Conditions: pre-treatment drying at 150° C. for 20 hours. The method, then: Using an Autosorb-6B manufactured by Quantachrome Instruments as the measurement apparatus, the specific surface area was determined by the BET method with N2 adsorption.
Data set [2] can be described thus: Dissolution test in water, monitored by absorption at 450 nm. The data set is classed as physicochemical. Conditions: 1.3 mg PQQ powder in 2 mL water, room temperature; time to complete dissolution calculated from gradient of concentration change. The method, then: In Examples and Comparative Examples, UV measurements were performed using a HITACHI U-2000 Spectrophotometer. […] To an acrylic cell for UV measurement, 1.3 mg of the PQQ powder was added, followed by the addition of 2 mL of water. […] The dissolution in water was monitored by absorption at 450 nm at room temperature. Absorbance measurement was performed for one hour, and the duration until the complete dissolution was calculated from the gradient of change in the concentration.

The format of data set [3] is physicochemical. The source says: When mixing the salt of pyrroloquinoline quinone with the dispersion medium, the salt of pyrroloquinoline quinone may be added to the dispersion medium, the dispersion medium may be added to the salt of pyrroloquinoline quinone, or the salt of pyrroloquinoline quinone and the disperse medium may be added into separate vessels. Preferably, the salt of pyrroloquinoline quinone can be added to the dispersion medium. Preferably, the concentration of the salt of pyrroloquinoline quinone here is the same or higher than the solubility. The “solubility” as used herein refers to the extent to which a solute dissolves in a solvent, and can be expressed by the concentration of the solute in the saturated solution. The solubility of the salt of pyrroloquinoline quinone can be suitably determined by the temperature of the mixture.

SMILES strings stand for the structures.

Consider `O=C(O)c1cc(C(=O)O)c2c(n1)C(=O)C(=O)c1cc(C(=O)O)[nH]c1-2` [Comparative Example 1, Pyrroloquinoline quinone disodium], for which the specific surface area in data set [1] worked out at 2.9 m^2/g. Besides, in data set [2], the Dissolution time is 10 min. For the same compound, the solubility in water in data set [3] is recorded as 0.299 g per 100 g of water.

These data come from patent US9012521B2, “Pyrroloquinoline quinone gel” (Mitsubishi Gas Chemical Company, Inc., priority 2010, dated 2015).
